The subject of one series is Phaseolus vulgaris. Kind of series: Phytotoxicity against Phaseolus vulgaris (kidney bean) assessed as necrosis of leaf at 100 ppm after 7 days in greenhouse conditions. It is filed as organism-based. To be noted: in vivo, 168 h.
The nature of series [1]: 1-octanol/water distribution coefficient, log P of the compound. It is filed as physicochemical.
The subject of series [2] is Botrytis cinerea. Kind of series: Fungicidal activity against benzimidazole-resistant Botryotinia fuckeliana after 48 hr by poisoned food technique. It is filed as functional, organism-based. Conditions: Botrytis cinerea, 48 h; read-out: pEC50 (converted).
In series [3] the test system is Botrytis cinerea. As to the kind of experiment: Fungicidal activity against benzimidazole-resistant Botryotinia fuckeliana at 25 ppm after 48 hr by poisoned food technique. It is filed as functional.
Series [4] deals with Botrytis cinerea. Kind of series: Fungicidal activity against benzimidazole-resistant Botryotinia fuckeliana infected kidney bean leaf at 100 ppm after 7 days in greenhouse conditions by detached leaf test. It is filed as functional.
For series [5], the system named is Botrytis cinerea. Kind of series: Fungicidal activity against benzimidazole-resistant Botryotinia fuckeliana at 200 ppm after 48 hr by poisoned food technique. It is filed as functional.
Series [6] concerns Botrytis cinerea. Kind of series: Fungicidal activity against benzimidazole-resistant Botryotinia fuckeliana at 6.2 ppm after 48 hr by poisoned food technique. It is filed as functional.

As to `C#CCc1c(Cl)cc(N/C=N/OC(C)C)cc1Cl`, the Activity result in the series with Phaseolus vulgaris is on record as “Non-toxic”. The logP (commonly a log measure of how a compound divides between an organic and an aqueous phase) in series [1] is 3.9. The EC50 with Botrytis cinerea [2] was 33.1 nM.
Regarding `C#CCc1c(Cl)cc(N/C=N/OCC=C)cc1Cl`, the Activity entry in the series with Phaseolus vulgaris was “Non-toxic”. Moreover, in series [1], the logP worked out at 3.7. For the same compound, the EC50 in the series on Botrytis cinerea [2] is 67.6 nM.
On to `C#CCO/N=C/Nc1cc(Cl)c(CC#C)c(Cl)c1`, for which the Activity entry in the series on Phaseolus vulgaris is recorded as “Non-toxic”. In series [1], this compound registered a logP of 3.3. In addition, in the series on Botrytis cinerea [2], the EC50 is 33.9 nM.
As for `C#CCc1c(Cl)cc(N/C=N/OCCCC)cc1Cl`, in the series with Phaseolus vulgaris, the Activity result is listed as “Non-toxic”. Besides, in series [1], the logP stood at 4.4. Also, in the series with Botrytis cinerea [2], the EC50 was 316 nM.
On the same counts, the results for `C#CCc1c(Cl)cc(N/C=N/OC(C)CC)cc1Cl` (stereo unspecified) are “Non-toxic”, 4.2 and 158 nM.
In the case of `C#CCc1c(Cl)cc(N/C=N/OCC#N)cc1Cl`, the Activity entry in the series on Phaseolus vulgaris was “Non-toxic”. This compound also yielded a logP in series [1] of 3. Also, in the series on Botrytis cinerea [2], the EC50 is 33.9 nM.
On the same counts, the results for `C#CCc1c(Cl)cc(N/C=N/OCOC)cc1Cl` are “Non-toxic”, 3.2 and 33.1 nM.
In the case of `C#CCc1c(Cl)cc(N/C=N/OCSC)cc1Cl`, the Activity entry with Phaseolus vulgaris is “Non-toxic”. In addition, in series [1], the logP is 3.6. In the series on Botrytis cinerea [2], the EC50 is 31.6 nM.
As for `C#CCc1c(Cl)cc(N/C=N/OCOCC)cc1Cl`, the Activity result in the series on Phaseolus vulgaris is reported as “Non-toxic”. In series [1], this compound gave a logP of 3.5. For the same compound, the EC50 with Botrytis cinerea [2] was 63.1 nM.
On the same counts, the results for `C#CCc1c(Cl)cc(N/C=N/OCC(=O)OCC)cc1Cl` are “Non-toxic”, 3.6 and 1450 nM.
In the case of `C#CCc1c(Cl)cc(N/C=N/OCCCl)cc1Cl`, in the series on Phaseolus vulgaris, the Activity entry was “Non-toxic”. Also, the logP in series [1] amounted to 3.7. For the same compound, the EC50 in the series on Botrytis cinerea [2] is 30.9 nM.
With `C#CCc1c(Cl)cc(N/C=N/OCCOCC)cc1Cl`, the Activity result in the series with Phaseolus vulgaris was “Non-toxic”. The same compound registered a logP in series [1] of 3.7. Besides, the EC50 in the series with Botrytis cinerea [2] is 60.3 nM.
Regarding `C#CCc1c(Cl)cc(N/C=N/OC/C=C\Cl)cc1Cl`, the Activity entry in the series on Phaseolus vulgaris was “Non-toxic”. In series [1], this compound showed a logP of 3.9. The EC50 in the series with Botrytis cinerea [2] is 60.3 nM.
On the same counts, the results for `C#CCc1c(Cl)cc(N/C=N/OC/C=C/Cl)cc1Cl` are “Non-toxic”, 3.9 and 302 nM.
In the case of `C#CCc1c(Cl)cc(N/C=N/OCc2ccccc2)cc1Cl`, the Activity result in the series with Phaseolus vulgaris is recorded as “Non-toxic”. In addition, in series [1], the logP was 4.2. The EC50 with Botrytis cinerea [2] is 2880 nM.
On the same counts, the results for `C#CCc1c(Cl)cc(N/C=N/Oc2ccccc2)cc1Cl` are “Non-toxic”, 4.4 and 295 nM.
On the same counts, the results for `C#CCc1c(Cl)cc(N/C=N/Oc2ccc(C)cc2)cc1Cl` are “Non-toxic”, 4.8 and 851 nM.
Turning to `CCO/N=C/Nc1ccc(OCC)c(OCC)c1`, the Activity was 70% with Botrytis cinerea [3]; 50% in the series on Botrytis cinerea [4]; 100% in the series on Botrytis cinerea [5]; 26% in the series with Botrytis cinerea [6]; “Non-toxic” with Phaseolus vulgaris.
On the same counts, the results for `CCO/N=C/Nc1cc(Cl)c(OCC)c(Cl)c1OCC` are under 25%, under 25%, 50%, under 25% and “Non-toxic”.
In the case of `CCO/N=C/Nc1cc(Cl)c(F)c(Cl)c1`, in the series on Phaseolus vulgaris, the Activity result is recorded as “<= 10%”. In addition, the logP in series [1] was found to be 4. In addition, the EC50 in the series with Botrytis cinerea [2] was 794 nM.
For `CCO/N=C/Nc1cc(Cl)c(CC)c(Cl)c1`, the Activity result in the series with Phaseolus vulgaris is reported as “Non-toxic”. The compound also returned a logP in series [1] of 4.8. In addition, the EC50 in the series on Botrytis cinerea [2] was 389 nM.
As to `CCCCc1c(Cl)cc(N/C=N/OCC)cc1Cl`, in the series with Phaseolus vulgaris, the Activity entry was “Non-toxic”. Also, the logP in series [1] stood at 5.6. Moreover, the EC50 in the series with Botrytis cinerea [2] is 1740 nM.
On the same counts, the results for `CCO/N=C/Nc1cc(Cl)c(SCC)c(Cl)c1` are “Non-toxic”, 4.6 and 170 nM.
Turning to `CCO/N=C/Nc1cc(Cl)c(SSCC)c(Cl)c1`, the Activity entry in the series on Phaseolus vulgaris was “Non-toxic”. The compound also came in with a logP in series [1] of 5. In the series on Botrytis cinerea [2], the EC50 was 617 nM.
As for `CCO/N=C/Nc1cc(Cl)c([S+]([O-])CC)c(Cl)c1` (stereo unspecified), the Activity result in the series on Phaseolus vulgaris is listed as “Non-toxic”. In addition, in series [1], the logP was determined as 2.9. The EC50 in the series with Botrytis cinerea [2] is 162000 nM.
On the same counts, the results for `CCO/N=C/Nc1cc(Cl)c(S(=O)(=O)CC)c(Cl)c1` are “<= 10%”, 2.8 and 30900 nM.
On the same counts, the results for `CCO/N=C/Nc1cc(Cl)c(O)c(Cl)c1` are “Non-toxic”, 2.8 and 794 nM.
For the compound `CCO/N=C/Nc1cc(Cl)c(OC)c(Cl)c1`, the Activity entry with Phaseolus vulgaris is reported as “Non-toxic”. In series [1], this compound displayed a logP of 3.7. The EC50 in the series with Botrytis cinerea [2] was 191 nM.
On the same counts, the results for `CCCOc1c(Cl)cc(N/C=N/OCC)cc1Cl` are “Non-toxic”, 4.6 and 174 nM.
On the same counts, the results for `CCO/N=C/Nc1cc(Cl)c(OC(C)C)c(Cl)c1` are “<= 10%”, 4.4 and 6920 nM.
Take `C=CCOc1c(Cl)cc(N/C=N/OCC)cc1Cl`: the Activity entry in the series with Phaseolus vulgaris was “Non-toxic”. The same compound registered a logP in series [1] of 4.3. In addition, the EC50 with Botrytis cinerea [2] is 34.7 nM.
On the same counts, the results for `C#CCOc1c(Cl)cc(NC=NOCC)cc1Cl` are “Non-toxic”, 3.6 and 17.4 nM.
As to `CCO/N=C/Nc1cc(Cl)c(OCC(C)C)c(Cl)c1`, the Activity result in the series with Phaseolus vulgaris was “<= 10%”. The lipophilicity (logP) in series [1] was found to be 5. Moreover, the EC50 in the series on Botrytis cinerea [2] was 16200 nM.
Turning to `CC#CCOc1c(Cl)cc(N/C=N/OCC)cc1Cl`, the Activity result in the series with Phaseolus vulgaris was “Non-toxic”. This compound also registered a logP in series [1] of 4. Besides, in the series with Botrytis cinerea [2], the EC50 was 166 nM.
On the same counts, the results for `CCO/N=C/Nc1cc(Cl)c(OCC#N)c(Cl)c1` are “Non-toxic”, 3.1 and 174 nM.
On to `CCO/N=C/Nc1cc(Cl)c(OCOC)c(Cl)c1`, for which, in the series with Phaseolus vulgaris, the Activity entry is on record as “Non-toxic”. Further, the logP in series [1] worked out at 3.7. In addition, the EC50 with Botrytis cinerea [2] is 174 nM.
On the same counts, the results for `CCO/N=C/Nc1cc(Cl)c(OCCCl)c(Cl)c1` are “Non-toxic”, 4 and 32.4 nM.
On the same counts, the results for `C#CCc1c(Cl)cc(N/C=N/O)cc1Cl` are “Non-toxic”, 2.8 and 77.6 nM.
`C#CCc1c(Cl)cc(N/C=N/OCCC)cc1Cl`: the Activity result with Phaseolus vulgaris is “Non-toxic”. In series [1], this compound yielded a logP of 4. Moreover, the EC50 in the series with Botrytis cinerea [2] was 33.1 nM.
For `CCO/N=C/Nc1ccc(CC)cc1`, the Activity in the series on Botrytis cinerea [3] was under 25%; with Botrytis cinerea [4], under 25%; with Botrytis cinerea [5] it was 26%; in the series on Botrytis cinerea [6], under 25%; in the series on Phaseolus vulgaris it was “Non-toxic”.
`CCO/N=C/Nc1ccccc1OCC`: the Activity is 100% in the series with Botrytis cinerea [3]; under 25% with Botrytis cinerea [4]; 100% in the series with Botrytis cinerea [5]; under 25% with Botrytis cinerea [6]; “Non-toxic” in the series with Phaseolus vulgaris.
`CCO/N=C/Nc1cccc(OCC)c1`: the Activity is recorded as 26% in the series with Botrytis cinerea [3]; under 25% in the series on Botrytis cinerea [4]; 100% in the series on Botrytis cinerea [5]; under 25% in the series on Botrytis cinerea [6]; “Non-toxic” with Phaseolus vulgaris.
Consider `CCO/N=C/Nc1ccc(OCC)cc1`, for which the Activity in the series on Botrytis cinerea [3] is under 25%; in the series with Botrytis cinerea [4] it was under 25%; in the series on Botrytis cinerea [5], 50%; with Botrytis cinerea [6] it was under 25%; in the series with Phaseolus vulgaris, “Non-toxic”.
As to `CCO/N=C/Nc1cccc(Cl)c1Cl`, the Activity in the series on Botrytis cinerea [3] is under 25%; with Botrytis cinerea [4], under 25%; in the series with Botrytis cinerea [5], 100%; in the series with Botrytis cinerea [6] it was under 25%; in the series on Phaseolus vulgaris it was 11%.
As for `CCO/N=C/Nc1ccc(Cl)cc1Cl`, the Activity with Botrytis cinerea [3] is under 25%; in the series with Botrytis cinerea [4] it was under 25%; with Botrytis cinerea [5] it was 100%; in the series with Botrytis cinerea [6], under 25%; in the series with Phaseolus vulgaris, “<= 10%”.
Consider `CCO/N=C/Nc1cc(Cl)ccc1Cl`, for which the Activity with Botrytis cinerea [3] is recorded as under 25%; in the series with Botrytis cinerea [4] it was under 25%; in the series on Botrytis cinerea [5], 70%; in the series with Botrytis cinerea [6] it was under 25%; in the series on Phaseolus vulgaris it was “Non-toxic”.
As to `CCO/N=C/Nc1c(Cl)cccc1Cl`, the Activity with Botrytis cinerea [3] is reported as under 25%; in the series on Botrytis cinerea [4], under 25%; with Botrytis cinerea [5], 90%; with Botrytis cinerea [6], under 25%; in the series on Phaseolus vulgaris, over 31%.
For `CCO/N=C/Nc1ccc(Cl)c(Cl)c1`, the Activity is recorded as under 25% with Botrytis cinerea [3]; under 25% with Botrytis cinerea [4]; 70% in the series with Botrytis cinerea [5]; under 25% with Botrytis cinerea [6]; 11% with Phaseolus vulgaris.
Regarding `CCO/N=C/Nc1c(C)cccc1C`, the Activity with Botrytis cinerea [3] was under 25%; with Botrytis cinerea [4], under 25%; in the series on Botrytis cinerea [5], under 25%; in the series with Botrytis cinerea [6], under 25%; in the series with Phaseolus vulgaris, 11%.
For `CCO/N=C/Nc1cc(C)cc(C)c1`, the Activity is recorded as under 25% in the series on Botrytis cinerea [3]; under 25% in the series on Botrytis cinerea [4]; 90% in the series on Botrytis cinerea [5]; under 25% with Botrytis cinerea [6]; “Non-toxic” in the series with Phaseolus vulgaris.
As for `CCO/N=C/Nc1cc(OCC)ccc1OCC`, the Activity is reported as 100% with Botrytis cinerea [3]; under 25% in the series with Botrytis cinerea [4]; 100% in the series with Botrytis cinerea [5]; 70% in the series with Botrytis cinerea [6]; “Non-toxic” in the series with Phaseolus vulgaris.

For the origin of these results see ChEMBL document CHEMBL3045758, “Quantitative Structure-Activity Relationships of Fungicidal N-Phenylformamidoximes” (J Pestic Sci, 1992).
